{"source": "patent US10632106B2", "about": "“Methods of cancer treatment with 2-(1′H-Indole-3′-carbonyl)-thiazole-4-carboxylic acid methyl ester” (Ariagen, Inc., priority 2009, dated 2020)", "format_in_all_cases": "in vivo", "key": {"[1]": {"test_system": "human prostate cancer cell line LNCaP xenografts", "test": "LNCaP xenograft growth inhibition in nude mice", "settings": "20 mg/kg b.w. i.p. once daily", "description": "(§1) All the procedures related to animal handling, care, and the treatment in the study were performed following guidelines approved by an Institutional Animal Care and Use Committee (IACUC) of Crown Bioscience, Inc. (Santa Clara, Calif., USA, a contract research organization we hired) based on the guidance of the Association for Assessment and Accreditation of Laboratory Animal Care (AAALAC). Animals were checked for any effects of tumor growth and drug treatment on normal behavior such as mobility, food and water consumption, body weight gain/loss (gross body weights were measured twice weekly), eye/hair matting, and any other abnormal effect. Death and observed clinical signs were recorded on the basis of the number of animals within each group. Individual animals with a tumor volume exceeding 3,000 mm^3 or animals of a group with a mean tumor volume exceeding 2,000 mm^3 were euthanized. In addition, animals showing signs of severe distress and/or pain, dropping body weight more than 20% from that at the start of treatment, or losing the capability of accessing adequate food or water were humanely sacrificed.\nThe human prostate cancer cell line LNCaP (ATCC, American Type Culture Collection, Manassas, Va., USA) were maintained in vitro as monolayer culture in RPMI-1640 medium supplemented with 10% fetal bovine serum (FBS), 100 U/ml penicillin, 100 μg/ml streptomycin, and 2 mM L-glutamine at 37° C. in an atmosphere of 5% CO2 in air. The tumor cells were routinely subcultured twice a week. The cells growing in an exponential phase were harvested and counted for tumor inoculation.\n(§2) Each mouse was inoculated subcutaneously at the right flank with the LNCaP cells (1×10^7) in 0.1 ml of PBS for tumor development. When a mean tumor volume reached around 150 mm^3, the tumor-bearing mice were divided into homogeneous blocks based on their tumor volumes followed by a randomization of mice in each block into treatment groups (thus minimizing variations in tumor response to treatments due to the differential in initial mean tumor volumes). Each treatment group was consisted of 8 tumor-bearing mice. Vehicle (DMSO) or ITE in the vehicle at specified doses were administered to the mice by either i.p. (intraperitoneal) or p.o. (oral) injection once or twice daily for 28 continuous days as indicated.\n(§3) Tumor volume was measured twice weekly in two dimensions using a caliper and the volume was calculated with a formula of: V=0.5 a×b^2, where a and b are the long and short diameter (in mm) of a tumor, respectively. The tumor volume was then used for calculations of both TGI (Tumor Growth Inhibition) and TGD (Tumor Growth Delay). The TGI was determined by: TGI=ΔT/ΔC×100%, where ΔT was a difference between the mean tumor volume at a specified day of observation and that at the day treatment starts (day 1) for a drug treated group whereas ΔC was the same difference measured for the control group. The TGD was calculated as: TGD=T−C, where T was the time (in days) required for tumors in a drug treated group to reach a predetermined mean tumor volume and C the time (in days) in the control group to reach the same volume. A tumor weight was derived by equating 1,000 mm^3 in volume to 1,000 mg in weight. A net body weight was then derived by subtracting a tumor weight from a corresponding gross body weight with the tumor.\n(§4) Summary statistics, including mean and the standard error of the mean (SEM), are provided for the tumor volume of each group at each time point. Statistical analysis of difference in tumor volume among groups was conducted on a data set either at the best therapeutic time point or at the final dosing day as indicated. The tumor volume data were log-transformed and evaluated using a one-way ANOVA followed by Tukey's test when significance was observed. All data were analyzed using SPSS 16.0 and p<0.05 was considered to be statistically significant."}, "[2]": {"test_system": "human liver cancer cell line HepG2 xenografts", "test": "HepG2 xenograft growth inhibition in nude mice", "description": "as §1, §2, §3, §4\n(§5) The culture and inoculation of human prostate cancer cell line LNCaP were as described in Example 1. The manipulation for human liver cancer cell line HepG2 (ATCC) was similar as that for LNCaP except that DMEM (instead of RPMI-1640) medium was used, the L-glutamine was not used, and 2×10^6 cells were used for inoculation into female nude mice. The handling of human ovarian cancer cell line OVCAR-3 (ATCC) was the same as that of LNCaP except that the DMEM medium was used and 5×10^6 cells were used for inoculation into female nude mice. […]"}, "[3]": {"test_system": "human ovarian cancer cell line OVCAR-3 xenografts", "test": "OVCAR-3 xenograft growth inhibition in nude mice", "description": "as §1, §2, §3, §4, §5"}, "[4]": {"settings": "80 mg/kg i.p. once daily, at a tumor volume of 800 mm^3"}, "[5]": {"settings": "female, nude, mouse, in vivo, 32 day"}}, "data": [{"molecule": "CCC(=O)c1csc(C(=O)c2c[nH]c3ccccc23)n1", "note": "[ITK]", "values": [{"measurement": "TGD (Tumor Growth Delay)", "setting": "[1]; at a tumor volume of 1,000 mm^3", "value": 16, "unit": "days"}, {"measurement": "TGI (Tumor Growth Inhibition)", "setting": "[1]; day 28, TGI=ΔT/ΔC×100%", "value": 51, "unit": "%"}, {"measurement": "net body weight loss", "setting": "[2]; 80 mg/kg i.p. once daily", "value": "no obvious net body weight loss"}, {"measurement": "TGD (Tumor Growth Delay)", "setting": "[2]; [4]", "value": 26, "unit": "days"}, {"measurement": "TGI (Tumor Growth Inhibition)", "setting": "[2]; 80 mg/kg i.p. once daily, day 22, TGI=ΔT/ΔC×100%", "value": 22, "unit": "%"}, {"measurement": "mice died", "setting": "[2]; [5]", "value": "1 out of 8"}, {"measurement": "net body weight loss", "setting": "[3]; 80 mg/kg i.p. once daily", "value": "no obvious net body weight loss"}, {"measurement": "TGD (Tumor Growth Delay)", "setting": "[3]; [4]", "value": 13, "unit": "days"}, {"measurement": "TGI (Tumor Growth Inhibition)", "setting": "[3]; 80 mg/kg i.p. once daily, day 33, TGI=ΔT/ΔC×100%", "value": 46, "unit": "%"}, {"measurement": "mice died", "setting": "[3]; [5]", "value": "1 out of 8"}]}]}
